Assay results taken from article PMC9065575, “Synthesis, computational studies, antimycobacterial and antibacterial properties of pyrazinoic acid–isoniazid hybrid conjugates” (RSC Advances, 2019).
≈ marks a conversion by molar mass, not a printed value. Where “and” joins values, the source holds several entries; their conditions need not be identical. Equal entries are not always repeated. Where two headings read alike, the source gives them in different places.

Experiments:
[1] = test system: Enterococcus faecalis; assay: Aerobic antibacterial MIC, standard dilution technique; format: cell-based; conditions: Enterococcus faecalis, clinical isolate; value in parentheses; read-out: Minimum inhibitory concentration (MIC) Enterococcus faecalis
From the text: Antibacterial properties were investigated for the synthesized compounds against a variety of Gram-positive (Staphylococcus aureus, Enterococcus faecalis) and Gram-negative (Klebsiella pneumonia, Proteus vulgaris, Pseudomonas aeruginosa) clinical isolate bacteria utilizing the standard technique.[21]

[2] = test system: Mycobacterium marinum; assay: microbe, parasite or virus in culture; format: cell-based; conditions: clinical isolate, read-out: Minimum inhibitory concentration (MIC) M. marinum
[3] = test system: Mycobacterium fortuitum; assay: microbe, parasite or virus in culture; format: cell-based; conditions: for MIC: Mycolicibacterium fortuitum
[4] = test system: Mycobacterium bovis; assay: microbe, parasite or virus in culture; format: cell-based; conditions: Mycobacterium tuberculosis variant bovis, read-out: Minimum inhibitory concentration (MIC) M. bovis
[5] = test system: M. tuberculosis Erdman strain expressing luciferase; assay: microbe, parasite or virus in culture; format: cell-based, Mycobacterium tuberculosis; conditions: Mycobacterium tuberculosis, ERDMAN, 168 h; 30 μg mL^−1, pH 7.0, 7 days, vs untreated controls; read-out: Observed % growth inhibition at 30 µg/mL
[6] = test system: RPE1 (normal human immortalized retinal epithelial) cell line; assay: Antiproliferative properties by MTT technique; format: cell-based; conditions: RPE1 cells, 100 μM
Method: Antiproliferative properties of the synthesized compounds were screened against RPE1 (normal human immortalized retinal epithelial) cell line to determine the toxicity/selectivity towards normal cell by the standard MTT technique.[23]
Antiproliferative properties of the synthesized compounds were tested against RPE1 (normal human immortalized retinal epithelial) cell line at 100 μM to determine the toxicity/selectivity towards normal cell by the standard MTT technique.[23]

[7] = M. fortuitum, observed values listed with the BMLR-QSAR model, read-out: Observed MIC (Table S6)
[8] = clinical isolate, observed MIC, read-out: Minimum inhibitory concentration (MIC) M. fortuitum
[9] = clinical isolate, read-out: Minimum inhibitory concentration (MIC) M. fortuitum

Compound	MIC [1] [µM]	MIC ([2]; observed MIC) [µM]	MIC [2] [µg/mL]	MIC [3, 7] [µM]	MIC [3, 8] [µM]	MIC [3, 9] [µg/mL]	MIC [4]	inhibition at 30 µg/mL [5] [%]	Percentage of cell proliferation ± SD [6] [%]	melting point [°C]	potency relative to INH (M. fortuitum MIC) ([3]; vs INH MIC 145.8 μM)	potency relative to PZA (M. fortuitum MIC) ([3]; vs PZA MIC 81.2 μM) [folds]
CC(C)[C@H](NC(=O)c1cnccn1)C(=O)NNC(=O)c1ccncc1 [12b, (S)-N-(1-(2-Isonicotinoylhydrazineyl)-3-methyl-1-oxobutan-2-yl)pyrazine-2-carboxamide]	0.33 (≈ 0.113 µg/mL)	58.4	20	58400	58.4	20	> 20 µg/mL and > 58.4 µM	84.2	96.4 ± 2.7	175 to 177	–	–
CSCC[C@H](NC(=O)c1cnccn1)C(=O)O [10d, (Pyrazine-2-carbonyl)-L-methionine]	–	> 78.3	> 20	–	> 78.3	> 20	> 20 µg/mL and > 78.3 µM	80.2	82.9 ± 8.5	136 to 138	–	–
CC(C)C[C@H](NC(=O)c1cnccn1)C(=O)NNC(=O)c1ccncc1 [12a, (S)-N-(1-(2-Isonicotinoylhydrazineyl)-4-methyl-1-oxopentan-2-yl)pyrazine-2-carboxamide]	–	56.1	20	56100	56.1	20	> 20 µg/mL and > 56.1 µM	68.9	80.1 ± 4.2	160 to 162	–	–
CC(C)C[C@H](NC(=O)c1cnccn1)C(=O)O [10a, (Pyrazine-2-carbonyl)-L-leucine]	–	84.3	20	84300	84.3	20	> 20 µg/mL and > 84.3 µM	88.8	84.6 ± 0.7	155 to 156	–	–
O=C(NNC(=O)C(Cc1ccccc1)NC(=O)c1cnccn1)c1ccncc1 (stereo not shown) [12f, N-(1-(2-Isonicotinoylhydrazineyl)-1-oxo-3-phenylpropan-2-yl)pyrazine-2-carboxamide]	–	25.6	10	–	25.6	10	> 20 µg/mL and > 51.2 µM	–	95.5 ± 8.6	143 to 145	about 5.6 folds	~3.2
CC(C)[C@H](NC(=O)c1cnccn1)C(=O)O [10b, (Pyrazine-2-carbonyl)-L-valine]	0.13 (≈ 0.029 µg/mL)	> 89.6	> 20	–	> 89.6	> 20	> 20 µg/mL and > 89.6 µM	91	82.1 ± 3.0	160 to 162	–	–
CC[C@H](C)[C@H](NC(=O)c1cnccn1)C(=O)NNC(=O)c1ccncc1 [12c, N-((2S,3S)-1-(2-Isonicotinoylhydrazineyl)-3-methyl-1-oxopentan-2-yl)pyrazine-2-carboxamide]	–	56.1	20	56100	56.1	20	> 20 µg/mL and > 56.1 µM	84.1	84.6 ± 3.7	168 to 170	–	–
CC[C@@H](C)[C@H](NC(=O)c1cnccn1)C(=O)O [10c, (Pyrazine-2-carbonyl)-L-alloisoleucine]	–	> 84.3	> 20	–	> 84.3	> 20	> 20 µg/mL and > 84.3 µM	84.3	81.8 ± 5.5	164 to 166	–	–
O=C(N[C@@H](Cc1c[nH]c2ccccc12)C(=O)O)c1cnccn1 [10g, (Pyrazine-2-carbonyl)-L-tryptophan]	–	> 64.5	> 20	–	> 64.5	> 20	> 20 µg/mL and > 64.5 µM	8.8	80.1 ± 7.4	127 to 129	–	–
O=C(NNC(=O)[C@H](Cc1ccccc1)NC(=O)c1cnccn1)c1ccncc1 [12e, (S)-N-(1-(2-Isonicotinoylhydrazineyl)-1-oxo-3-phenylpropan-2-yl)pyrazine-2-carboxamide]	–	51.2	20	51200	51.2	20	> 20 µg/mL and > 51.2 µM	94.8	83.2 ± 5.7	177 to 179	–	–
O=C(NNC(=O)[C@H](Cc1c[nH]c2ccccc12)NC(=O)c1cnccn1)c1ccncc1 [12g, (S)-N-(3-(1H-Indol-3-yl)-1-(2-isonicotinoylhydrazineyl)-1-oxopropan-2-yl)pyrazine-2-carboxamide]	–	46.6	20	46600	46.6	20	> 20 µg/mL and > 46.6 µM	96	92.2 ± 1.2	243 to 245	–	–
